{"source": "patent US20250277066A1", "about": "“Substituted Pyridine-2,6-Bis(Phenylenephenolate) Complexes with Enhanced Solubility that are Useful as Catalyst Components for Olefin Polymerization” (ExxonMobil Chemical Patents Inc., priority 2022, published 2025)", "key": {"[1]": {"assay": "Propylene polymerization (PP) in small-scale autoclave reactors: yield, quench time, catalyst activity", "excerpt": "Solutions of the pre-catalysts were made using toluene (ExxonMobil Chemical—anhydrous, stored under N2) (98%) or isohexane (ExxonMobil Chemical—polymerization grade, and purified as described below). Pre-catalyst solutions were typically 0.25 mmol/L.\nSolvents, polymerization grade toluene and/or isohexanes were supplied by ExxonMobil Chemical Co. and are purified by passing through a series of columns: two 500 cc Oxyclear cylinders in series from Labclear (Oakland, Calif), followed by two 500 cc columns in series packed with dried […] (8-12 mesh; Aldrich Chemical Company), and two 500 cc columns in series packed with dried 5 Å mole sieves (8-12 mesh; Aldrich Chemical Company).\nPolymerization grade propylene (C3) was used and further purified by passing it through a series of columns: 2250 cc Oxiclear cylinder from Labclear followed by a 2250 cc column packed with 3 Å mole sieves (8-12 mesh; Aldrich Chemical Company), then two 500 cc columns in series packed with 5 Å mole sieves (8-12 mesh; Aldrich Chemical Company), then a 500 cc column packed with Selexsorb CD (BASF), and finally a 500 cc column packed with Selexsorb COS (BASF).\nActivation of the pre-catalysts was either by dimethylanilinium tetrakisperfluorophenylborate (Boulder Scientific or Albemarle Corp; Act ID=A) or is (hydrogenated tallow alkyl)methylammonium tetrakis(pentafluorophenyl)borate supplied as a 10 wt % solution in methylcyclohexane (Boulder Scientific; Act ID=B). Activators were typically used as a 0.25 mmol/L solution in toluene or isohexane.\nTri-n-octylaluminum (TnOAl or TNOA, Neat, AkzoNobel) was also used as a scavenger prior to introduction of the activator and pre-catalyst into the reactor. TNOA was typically used as a 5 mmol/L solution in toluene or isohexane.\nPolymerizations were conducted in an inert atmosphere (N2) drybox using autoclaves equipped with an external heater for temperature control, glass inserts (internal volume of reactor=23.5 mL for C2 and C2/C8; 22.5 mL for C3 runs), septum inlets, regulated supply of nitrogen, ethylene and propylene, and equipped with disposable PEEK mechanical stirrers (800 RPM). The autoclaves were prepared by purging with dry nitrogen at 110° C. or 115° C. for 5 hours and then at 25° C. for 5 hours.\nThe reactor was prepared as described above, then heated to 40° C., and then purged with propylene gas at atmospheric pressure. Toluene or isohexanes, liquid propylene (1.0 mL) and scavenger (TNOA, 0.5 μmol) were added via syringe. The reactor was then brought to process temperature (70° C. or 100° C.) while stirring at 800 RPM. The activator solution, followed by the pre-catalyst solution, were injected via syringe to the reactor at process conditions. Reactor temperature was monitored and typically maintained within +/−1° C. Polymerizations were halted by addition of approximately 50 psi compressed dry air gas mixture to the autoclaves for approximately 30 seconds. The polymerizations were quenched based on a predetermined pressure loss (maximum quench value) or for a maximum of 30 minutes. The reactors were cooled and vented. The polymers were isolated after the solvent was removed in-vacuo. The actual quench time (s) is reported as quench time (s). Yields reported include total weight of polymer and residual catalyst. Catalyst activity is reported as grams of polymer per mmol transition metal compound per hour of reaction time (g/mmol·hr).\nPolymerization results are collected in Tables 2 below. “Ex #” stands for example number. Example numbers starting with a “C” are comparative examples. “Cat ID” identifies the pre-catalyst used in the experiment. Corresponding numbers identifying the pre-catalyst (also referred to as pre-catalyst, catalyst, complex or compound) are located in the synthetic experimental section. T(° C.) is the polymerization temperature which was typically maintained within +/−1° C. “Yield” is polymer yield, and is not corrected for catalyst residue. […]"}, "[2]": {"assay": "Rapid GPC of polymers (Mn, Mw, Mz, PDI)", "assay_type": "physicochemical", "parameters": "Mn / Mw / Mz: unit not given here", "method": "For analytical testing, polymer sample solutions were prepared by dissolving polymer in 1,2,4-trichlorobenzene (TCB, 99+% purity from Sigma-Aldrich) containing 2,6-di-tert-butyl-4-methylphenol (BHT, 99% from Aldrich) at 165° C. in a shaker oven for approximately 3 hours. The typical concentration of polymer in solution was between 0.1 to 0.9 mg/mL with a BHT concentration of 1.25 mg BHT/mL of TCB. Samples were cooled to 135° C. for testing.\nHigh temperature size exclusion chromatography was performed using an automated “Rapid GPC” system as described in U.S. Pat. Nos. 6,491,816; 6,491,823; 6,475,391; 6,461,515; 6,436,292; 6,406,632; 6,175,409; 6,454,947; 6,260,407; and 6,294,388; each of which is incorporated herein by reference. Molecular weights (weight average molecular weight (Mw), number average molecular weight (Mn) and z average molecular weight (Mz)) and molecular weight distribution (MWD=Mw/Mn), which is also sometimes referred to as the polydispersity (PDI) of the polymer, were measured by Gel Permeation Chromatography using a Symyx Technology GPC equipped with evaporative light scattering detector (ELSD) and calibrated using polystyrene standards (Polymer Laboratories: Polystyrene Calibration Kit S-M-10: Mp (peak Mw) between 5,000 and 3,390,000). Alternatively, samples were measured by Gel Permeation Chromatography using a Symyx Technology GPC equipped with dual wavelength infrared detector and calibrated using polystyrene standards (Polymer Laboratories: Polystyrene Calibration Kit S-M-10: Mp (peak Mw) between 580 and 3,039,000). […] No column spreading corrections were employed. Numerical analyses were performed using Epoch® software available from Symyx Technologies or Automation Studio software available from Freeslate. The molecular weights obtained are relative to linear polystyrene standards. Molecular weight data is reported in Table 2 under the headings Mn, Mw, Mz and PDI as defined above."}, "[3]": {"assay": "DSC melting point of polymers (TA-Q100)", "assay_type": "physicochemical", "method": "Differential Scanning Calorimetry (DSC) measurements were performed on a TA-Q100 instrument to determine the melting point of the polymers. Samples were pre-annealed at 220° C. for 15 minutes and then allowed to cool to room temperature overnight. The samples were then heated to 220° C. at a rate of 100° C./minute and then cooled at a rate of 50° C./minute. Melting points were collected during the heating period. The results are reported in the Table 2 under the heading, Tm (° C.)."}, "[4]": {"details": "polypropylene made with activator A at 70° C."}, "[5]": {"details": "polypropylene made with activator A at 100° C."}, "[6]": {"details": "polypropylene made with activator B at 70° C."}, "[7]": {"details": "polypropylene made with activator B at 100° C."}, "[8]": {"details": "polymer made with activator A, T 70 ° C."}, "[9]": {"details": "polymer made with activator A, T 100 ° C."}, "[10]": {"details": "polymer made with activator B, T 70 ° C."}, "[11]": {"details": "polymer made with activator B, T 100 ° C."}}, "note": "Several values for one entry are separate records, joined by “and”; a condition that tells them apart may be missing. Identical values can stand only once."}
{"compound": "CC(C)(C)c1cc2c(c(C34CC5CC(CC(C5)C3)C4)c1)[O][Zr-]1([CH3])([CH3])[O]c3c(cc(C(C)(C)C)cc3C34CC5CC(CC(C5)C3)C4)-c3ccccc3-c3cccc([n+]31)-c1ccccc1-2", "note": "[Complex 2]", "values": [{"measurement": "Activity", "setting": "[1]; activator B, T 70° C.", "value": "2,069,268 g P/mmol cat • hr and 4,201,200 g P/mmol cat • hr and 3,074,182 g P/mmol cat • hr"}, {"measurement": "Activity", "setting": "[1]; activator B, T 100° C.", "value": "2,345,000 g P/mmol cat • hr and 2,682,545 g P/mmol cat • hr and 2,225,032 g P/mmol cat • hr"}, {"measurement": "Mn", "setting": "[2]; [4]", "value": "51,771 and 73,251 and 79,137"}, {"measurement": "Mw", "setting": "[2]; [4]", "value": "409,655 and 422,884 and 427,915"}, {"measurement": "Mz", "setting": "[2]; [4]", "value": "1,643,708 and 1,794,768 and 1,704,507"}, {"measurement": "PDI", "setting": "[2]; polypropylene made with activator A at 70° C., Mw/Mn", "value": "7.91 and 5.77 and 5.41"}, {"measurement": "Mw", "setting": "[2]; [5]", "value": "157,755 and 118,735 and 149,968"}, {"measurement": "Mz", "setting": "[2]; [5]", "value": "608,816 and 547,511 and 649,731"}, {"measurement": "PDI", "setting": "[2]; polypropylene made with activator A at 100° C., Mw/Mn", "value": "3.82 and 5.79 and 4.78"}, {"measurement": "Mn", "setting": "[2]; [6]", "value": "142,243 and 146,842 and 153,727"}, {"measurement": "Mw", "setting": "[2]; [6]", "value": "528,329 and 583,343 and 515,347"}, {"measurement": "Mz", "setting": "[2]; [6]", "value": "1,786,121 and 2,112,818 and 1,774,716"}, {"measurement": "PDI", "setting": "[2]; polypropylene made with activator B at 70° C., Mw/Mn", "value": "3.71 and 3.97 and 3.35"}, {"measurement": "Mn", "setting": "[2]; [7]", "value": "63,491 and 54,833 and 47,288"}, {"measurement": "Mw", "setting": "[2]; [7]", "value": "180,083 and 161,679 and 169,722"}, {"measurement": "Mz", "setting": "[2]; [7]", "value": "621,548 and 531,840 and 733,298"}, {"measurement": "PDI", "setting": "[2]; polypropylene made with activator B at 100° C., Mw/Mn", "value": "2.84 and 2.95 and 3.59"}, {"measurement": "Tm", "setting": "[3]; [4]", "value": "147.1 °C and 148.3 °C"}, {"measurement": "Tm", "setting": "[3]; [5]", "value": "147.6 °C and 145.6 °C and 146.6 °C"}, {"measurement": "Tm", "setting": "[3]; [6]", "value": "148.8 °C and 149.3 °C and 148.6 °C"}, {"measurement": "Tm", "setting": "[3]; [7]", "value": "148.0 °C and 147.3 °C"}]}
{"compound": "Cc1cc2[n+]3c(c1)-c1ccccc1-c1cc(C(C)(C)C)cc(C45CC6CC(CC(C6)C4)C5)c1[O][Zr-]3([CH3])([CH3])[O]c1c(cc(C(C)(C)C)cc1C13CC4CC(CC(C4)C1)C3)-c1ccccc1-2", "note": "[Complex 3]", "values": [{"measurement": "Activity", "setting": "[1]; activator A, T 70° C.", "value": "1,623,360 g P/mmol cat • hr and 2,345,333 g P/mmol cat • hr"}, {"measurement": "Activity", "setting": "[1]; activator B, T 70° C.", "value": "1,030,400 g P/mmol cat • hr and 1,074,880 g P/mmol cat • hr and 1,034,182 g P/mmol cat • hr"}, {"measurement": "Activity", "setting": "[1]; activator B, T 100° C.", "value": "844,235 g P/mmol cat • hr and 476,276 g P/mmol cat • hr and 766,154 g P/mmol cat • hr"}, {"measurement": "Mn", "setting": "[2]; [8]", "value": "151,894 and 189,341"}, {"measurement": "Mw", "setting": "[2]; [8]", "value": "555,461 and 618,660"}, {"measurement": "Mz", "setting": "[2]; [8]", "value": "2,204,591 and 1,998,977"}, {"measurement": "PDI", "setting": "[2]; [8]", "value": "3.66 and 3.27"}, {"measurement": "Mn", "setting": "[2]; [9]", "value": "97,418 and 70,184 and 116,079"}, {"measurement": "Mw", "setting": "[2]; [9]", "value": "211,821 and 182,436 and 245,630"}, {"measurement": "Mz", "setting": "[2]; [9]", "value": "590,904 and 640,309 and 691,819"}, {"measurement": "PDI", "setting": "[2]; [9]", "value": "2.17 and 2.60 and 2.12"}, {"measurement": "Mn", "setting": "[2]; [10]", "value": "251,087 and 247,428 and 294,324"}, {"measurement": "Mw", "setting": "[2]; [10]", "value": "611,739 and 605,320 and 723,438"}, {"measurement": "Mz", "setting": "[2]; [10]", "value": "1,641,465 and 1,654,930 and 2,228,894"}, {"measurement": "PDI", "setting": "[2]; [10]", "value": "2.44 and 2.45 and 2.46"}, {"measurement": "Mn", "setting": "[2]; [11]", "value": "136,672 and 115,932 and 136,724"}, {"measurement": "Mw", "setting": "[2]; [11]", "value": "263,279 and 217,696 and 285,817"}, {"measurement": "Mz", "setting": "[2]; [11]", "value": "693,703 and 504,146 and 859,182"}, {"measurement": "PDI", "setting": "[2]; [11]", "value": "1.93 and 1.88 and 2.09"}, {"measurement": "Tm", "setting": "[3]; [8]", "value": "150.4 °C and 150.9 °C"}, {"measurement": "Tm", "setting": "[3]; [9]", "value": "149.4 °C and 148.1 °C and 150.1 °C"}, {"measurement": "Tm", "setting": "[3]; [10]", "value": "150.5 °C and 150.9 °C"}, {"measurement": "Tm", "setting": "[3]; [11]", "value": "148.9 °C and 149.8 °C"}]}
